In brackets after ≈: the same amount, converted by molar mass. Read-outs that look alike come from different tables or passages of the source.
What was measured:
[1] = tested on: panel of gram-positive and gram-negative bacteria; assay: MIC against panel of bacteria; assay type: cell-based; conditions: read-out: MIC vs B. subtilis and M. luteus
Protocol: After completing the syntheses, the antibacterial activity of A‐variations 4–24 was assessed by determination of MIC values against a basic set of gram‐negative and gram‐positive bacteria (Table 1). The monocyclic derivatives 4–8 featuring a cyano‐, trifluoromethyl‐, methoxy‐ and fluoro‐ substituent in para‐position were very active against the gram–negative E. coli and S. typhimurium strains with MIC values in the same range as 3rd Gen albicidin 3 or ciprofloxacin which is the gold standard for gyrase inhibitors. […] These findings are in agreement with previous studies showing good activities for cyano, trifluoromethyl, methoxy and fluoro substituents in the para‐position of different aromatic rings in the building block A.[12, 13] The activity of the monocyclic derivatives 4–8 against the gram‐positive strains B. subtilis and M. luteus were similar but slightly less pronounced compared to the lead structure 3.
1.1 Determination of Minimal Inhibitory Concentrations (MIC)
Minimal inhibitory concentration (MIC) against selected bacterial strains values were determined according to the ninth edition of the Approved Standard M07-A9.[1] 20 μL of cryo stocks of bacterial strains were suspended in 20 mL LB medium (Lysogeny broth: 10 g/L peptone, 5 g/L yeast extract, 5 g/L NaCl). Following incubation overnight at 37°C, 200 rpm, the test inoculum was adjusted by 0.5 McFarland Standard in cation adjusted Mueller-Hinton broth (BBLTM Mueller-Hinton Broth II, Becton, Dickinson and Company, New Jersey, USA) to approximately 1x10^6 CFU mL-1. 95 μL of the bacterial inoculum were applied per well of a 96-well plate. Albicidin and albicidin derivatives 3−24 were dissolved in DMSO (100%) to an initial concentration of 2560 μg/mL and serially diluted in DMSO (100%). Initial solution and serial dilutions of Ciprofloxacin were prepared in 0.1 N HCL, respectively. […] Both microdilution trays and agar plates were incubated at 30−37°C for 16 h and subsequently analyzed for growth inhibition by naked eye. […]

[2] = tested on: Salmonella typhimurium TA100; parameters: method as in PMID 36741192; conditions: already published elsewhere; cited from earlier work
AlbAL = assay: Transcription activation (TA) reporter assay, pAlbA-ilux luminescence; assay type: cell-based, Klebsiella oxytoca; conditions: luminescence normalized to 2nd Gen albicidin 2
Protocol: Finally, we investigated if synthetic variations of building block A are able to evade the effects of the resistance protein AlbA. Therefore, we carried out a qualitative growth inhibition assay with derivatives 4–24 in presence of an equimolar amount of purified AlbAS. After incubation of the cultures overnight, the growth of the bacteria was evaluated. The ability of AlbAS to sufficiently sequester an albicidin derivative from the supernatant allowed E. coli cells to accumulate in a visible cell pellet. Second, we performed a quantitative transcription‐activation reporter assay[22] to assess transcriptional regulation by AlbAL. The promoter sequence pAlbA was inserted into a reporter vector that encodes the ilux luminescence cassette.[22] The luminescence signals elicited by ligand binding of synthetic variations to AlbAL was compared and normalized to the signal induced by 2nd Gen albicidin 2 and are hereby referred to as relative transcription activation (TA^%). The combination of both assays prompted us to categorize the experimental outcomes (Figure 4) in four groups:
Figure 4 Characterization of AlbA resistance against derivatives 2, 4–24. GIA: Qualitative growth inhibition assay against E. coli DSM 1116. (−): Derivative unable to inhibit the growth of E. coli in presence of AlbAS. (+): Derivative inhibits growth of E. coli in presence of AlbAS. […] For details see SI Figure 9. Transcription activation (TA) assay: luminescence elicited by 2nd Gen albicidin 2 from the TA assay was normalized to 100 % and the luminescence signal of tested derivatives provided: relative luminescence [%]=luminescence [derivative]/luminescence [2]×100 %. Green bars indicate low relative luminescence (<40 %) and red bars indicate high relative luminescence (>50 %). Error bars show the standard deviations of triplicate measurements. TEXT PRINTED IN THE PICTURE: 2: E. coli inhibition +AlbA: − | 4: E. coli inhibition +AlbA: + | 9: E. coli inhibition +AlbA: + | 11: E. coli inhibition +AlbA: + | 12: E. coli inhibition +AlbA: + | 13: E. coli inhibition +AlbA: ~ | 14: E. coli inhibition +AlbA: − | 16: E. coli inhibition +AlbA: − | 17: E. coli inhibition +AlbA: − | 18: E. coli inhibition +AlbA: − | 19: E. coli inhibition +AlbA: − | 20: E. coli inhibition +AlbA: + | 21: E. coli inhibition +AlbA: − | 22: E. coli inhibition +AlbA: − | 23: E. coli inhibition +AlbA: − | 24: E. coli inhibition +AlbA: − […]
Transcription activation (TA) assay
Transcription reporter assays were conducted as described previously.[4] In short, E. coli BL21(DE3) were transformed with pET15b-AlbA, an expression construct without His-tag, and pCS-pAlbA-ilux, a reporter vector containing the pAlbA promoter and the improved bacterial luciferase reporter gene cassette ILUX.[7] […] Sixty data points were measured on a TECAN Infinite 200 microplate reader, after orbital shaking with for 10 min, with an amplitude of 3 mm, and a wait time of one minute between each measurement. At each time point, the absorbance at 600 nm ([…] bandwidth and 25 flashes) and the luminescence (500 ms integration time, no attenuation) were measured. Each assay was measured in triplicate at 30°C. The luminescence data was normalized to the OD before the background signal (wells with no albicidin added) was subtracted and the mean + standard deviation of each measurement point was calculated. […]

[3] = gram-positive bacteria B. subtilis and M. luteus

SMILES | relative transcription activation (TA%), in words (AlbAL) | also measured
COc1c(NC(=O)c2ccc(NC(=O)c3ccc(NC(=O)[C@H](Cc4c[nH]nn4)NC(=O)c4ccc(NC(=O)c5ccc6ccccc6n5)cc4)cn3)c(OC)c2O)ccc(C(=O)O)c1O [compound 11] |  | MIC [1, 3]: ≤ 0.016 µg/mL
COc1c(NC(=O)c2ccc(NC(=O)c3ccc(NC(=O)[C@H](Cc4c[nH]nn4)NC(=O)c4ccc(NC(=O)c5cc6ccccc6cn5)cc4)cn3)c(OC)c2O)ccc(C(=O)O)c1O [compound 12] |  | MIC [1]: 0.063 µg/mL (≈ 0.0715 µM)
COc1c(NC(=O)c2ccc(NC(=O)c3ccc(NC(=O)[C@H](Cc4c[nH]nn4)NC(=O)c4ccc(NC(=O)c5cnc6ccccc6c5)cc4)cn3)c(OC)c2O)ccc(C(=O)O)c1O [compound 13] |  | MIC [1, 3]: 0.125 µg/mL (≈ 0.142 µM)
COc1c(NC(=O)c2ccc(NC(=O)c3ccc(NC(=O)[C@H](Cc4c[nH]nn4)NC(=O)c4ccc(NC(=O)c5ccc6nc(C)ccc6c5)cc4)cn3)c(OC)c2O)ccc(C(=O)O)c1O [compound 16] |  | MIC S. typh. [2]: ≤0.016 µg/mL
CCn1cc(C(=O)Nc2ccc(C(=O)N[C@@H](Cc3c[nH]nn3)C(=O)Nc3ccc(C(=O)Nc4ccc(C(=O)Nc5ccc(C(=O)O)c(O)c5OC)c(O)c4OC)nc3)cc2)c(=O)c2ccc(C)nc21 [compound 18] | low | 
CCn1cc(C(=O)Nc2ccc(C(=O)N[C@@H](Cc3c[nH]nn3)C(=O)Nc3ccc(C(=O)Nc4ccc(C(=O)Nc5ccc(C(=O)O)c(O)c5OC)c(O)c4OC)nc3)cc2)c(=O)c2cc3c(cc21)OCO3 [compound 19] | low | 
COc1c(NC(=O)c2ccc(NC(=O)c3ccc(NC(=O)[C@H](Cc4c[nH]nn4)NC(=O)c4ccc(NC(=O)c5cc6cc(O)ccc6[nH]5)cc4)cn3)c(OC)c2O)ccc(C(=O)O)c1O [compound 21] | intermediate | 
COc1c(NC(=O)c2ccc(NC(=O)c3ccc(NC(=O)[C@H](Cc4c[nH]nn4)NC(=O)c4ccc(NC(=O)c5ccc6nc[nH]c6c5)cc4)cn3)c(OC)c2O)ccc(C(=O)O)c1O [compound 23] | low | 
COc1c(NC(=O)c2ccc(NC(=O)c3ccc(NC(=O)[C@H](Cc4c[nH]nn4)NC(=O)c4ccc(NC(=O)c5ccc6nn[nH]c6c5)cc4)cn3)c(OC)c2O)ccc(C(=O)O)c1O [compound 24] | low | 
